In ChEMBL document CHEMBL5154747, “Discovery of new carbonic anhydrase IX inhibitors as anticancer agents by toning the hydrophobic and hydrophilic rims of the active site to encounter the dual-tail approach” (Eur J Med Chem, 2022):
Calls of active or inactive are those of the source. No cut-off for these calls is given here.

Key:
HCC 2998 = assay: Cytotoxicity against human HCC 2998 cells assessed as inhibition of cell viability incubated for 72 hrs under hypoxia condition by MTT assay; format: functional, cell-based; conditions: HCC 2998, 72 h
SK-MEL-5 [1] = assay: Induction of apoptosis in human SK-MEL-5 cells assessed as early apoptotic cells at 10 uM incubated for 24 hrs by Annexin-V/FITC and PI staining based flow cytometry analysis (reference value: 0.61 %); format: functional
SK-MEL-5 [2] = assay: Induction of apoptosis in human SK-MEL-5 cells assessed as necrotic cells at 10 uM incubated for 24 hrs by Annexin-V/FITC and PI staining based flow cytometry analysis (reference value: 1.56 %); format: functional
SK-MEL-5 [3] = assay: Induction of cell cycle arrest in human SK-MEL-5 cells assessed as accumulation of diploid cells at G1 phase at 10 uM incubated for 24 hrs by FACSCalibur flow cytometry analysis (reference value: 69.23%); format: functional
SK-MEL-5 [4] = assay: Induction of cell cycle arrest in human SK-MEL-5 cells assessed as cell debris at 10 uM incubated for 24 hrs by FACSCalibur flow cytometry analysis (reference value: 1.38%); format: functional
SK-MEL-5 [5] = assay: Induction of cell cycle arrest in human SK-MEL-5 cells assessed as accumulation of diploid cells at G2/M phase at 10 uM incubated for 24 hrs by FACSCalibur flow cytometry analysis (reference value: 13.22%); format: functional
SK-MEL-5 [6] = assay: Induction of ROS generation in human SK-MEL-5 cells assessed as increase in intracellular ROS level incubated for 1 hrs by H2DCFDA probe based fluorometry analysis relative to control; format: functional
SK-MEL-5 [7] = assay: Induction of apoptosis in human SK-MEL-5 cells assessed as late apoptotic cells at 10 uM incubated for 24 hrs by Annexin-V/FITC and PI staining based flow cytometry analysis (reference value: 0.26 %); format: functional
SK-MEL-5 [8] = assay: Induction of cell cycle arrest in human SK-MEL-5 cells assessed as accumulation of diploid cells at S phase at 10 uM incubated for 24 hrs by FACSCalibur flow cytometry analysis (reference value: 17.55%); format: functional
[9] = Cytotoxicity against human HEK293 cells assessed as inhibition of cell viability by MTT assay
SK-MEL-5 [10] = assay: Cytotoxicity against human SK-MEL-5 cells assessed as inhibition of cell viability incubated for 72 hrs under hypoxia condition by MTT assay; format: functional, cell-based; conditions: SK-MEL-5, 72 h
SK-MEL-5 [11] = assay: Induction of cell cycle arrest in human SK-MEL-5 cells assessed as accumulation at pre G1 phase at 10 uM incubated for 24 hrs by FACSCalibur flow cytometry analysis (reference value: 2.43%); format: functional
SK-MEL-5 [12] = assay: Induction of apoptosis in human SK-MEL-5 cells assessed as caspase 9 activation incubated for 24 hrs by Western blotting analysis; format: functional, cell-based
SK-MEL-5 [13] = assay: Induction of apoptosis in human SK-MEL-5 cells assessed as caspase 3 activation incubated for 24 hrs by Western blotting analysis; format: functional, cell-based
SK-MEL-5 [14] = assay: Induction of cell cycle arrest in human SK-MEL-5 cells assessed as cell aggregates at 10 uM incubated for 24 hrs by FACSCalibur flow cytometry analysis (reference value: 1.79%); format: functional

Structure (SMILES) | IC50 (HCC 2998) [µM] | Activity (SK-MEL-5 [1]) [%] | Activity (SK-MEL-5 [2]) [%] | Activity (SK-MEL-5 [3]) [%] | Activity (SK-MEL-5 [4]) [%] | Activity (SK-MEL-5 [5]) [%] | Activity (SK-MEL-5 [6]) [%] | Activity (SK-MEL-5 [7]) [%] | Activity (SK-MEL-5 [8]) [%] | IC50 [9] [µM] | IC50 (SK-MEL-5 [10]) [µM] | Activity (SK-MEL-5 [11]) [%] | Activity (SK-MEL-5 [12]) | Activity (SK-MEL-5 [13]) | Activity (SK-MEL-5 [14]) [%]
NS(=O)(=O)c1ccc(Nc2nc(N/N=C/c3ccccn3)nc(Nc3ccccc3)n2)cc1 | 1.93 | 4.28 | 7.99 | 58.78 | 1.42 | 8.81 | 23 | 24.97 | 32.41 | 45.6 | 8.33 | 37.24 | Active | Active | 1.85
CN(C)c1ccc(/C=N/Nc2nc(Nc3ccccc3)nc(Nc3ccc(S(N)(=O)=O)cc3)n2)cc1 | – | – | – | – | – | – | – | – | – | 39.8 | – | – | – | – | –
